Reference: patent publication US20220395582A1, “COMPOSITIONS AND METHODS OF INDUCING DIFFERENTIATION OF A HAIR CELL” (Akouos, Inc., priority 2018, published 2022)

B1: mScarlet: nucleic acid vector with ITR, CMV promoter, mScarlet and bGHpA sequences (nucleic acid)
DNA: CCTGCAGGCAGCTGCGCGCTCGCTCGCTCACTGAGGCCGCCCGGGCGTCGGGCGACCTTTGGTCGCCCGGCCTCAGTGAGCGAGCGAGCGCGCAGAGAGGGAGTGGCCAACTCCATCACTAGGGGTTCCTGTGATGCGGTTTTGGCAGTACATCAATGGGCGTGGATAGCGGTTTGACTCACGGGGATTTCCAAGTCTCCACCCCATTGACGTCAATGGGAGTTTGTTTTGGCACCAAAATCAACGGGACTTTCCAAAATGTCGTAACAACTCCGCCCCATTGACGCAAATGGGCGGTAGGCGTGTACGGTGGGAGGTCTATATAAGCAGAGCTCGTTTAGTGAACCGTCAGATCGCCTGGAGACGCGTGAGCAAGGGCGAGGCAGTGATCAAGGAGTTCATGCGGTTCAAGGTGCACATGGAGGGCTCCATGAACGGCCACGAGTTCGAGATCGAGGGCGAGGGCGAGGGCCGCCCCTACGAGGGCACCCAGACCGCCAAGCTGAAGGTGACCAAGGGTGGCCCCCTGCCCTTCTCCTGGGACATCCTGTCCCCTCAGTTCATGTACGGCTCCAGGGCCTTCATCAAGCACCCCGCCGACATCCCCGACTACTATAAGCAGTCCTTCCCCGAGGGCTTCAAGTGGGAGCGCGTGATGAACTTCGAGGACGGCGGCGCCGTGACCGTGACCCAGGACACCTCCCTGGAGGACGGCACCCTGATCTACAAGGTGAAGCTCCGCGGCACCAACTTCCCTCCTGACGGCCCCGTAATGCAGAAGAAGACAATGGGCTGGGAAGCGTCCACCGAGCGGTTGTACCCCGAGGACGGCGTGCTGAAGGGCGACATTAAGATGGCCCTGCGCCTGAAGGACGGCGGCCGCTACCTGGCGGACTTCAAGACCACCTACAAGGCCAAGAAGCCCGTGCAGATGCCCGGCGCCTACAACGTCGACCGCAAGTTGGACATCACCTCCCACAACGAGGACTACACCGTGGTGGAACAGTACGAACGCTCCGAGGGCCGCCACTCCACCGGCGGCATGGACGAGCTGTACAAGTAAGCTGATCAGCCTCGACTGTGCCTTCTAGTTGCCAGCCATCTGTTGTTTGCCCCTCCCCCGTGCCTTCCTTGACCCTGGAAGGTGCCACTCCCACTGTCCTTTCCTAATAAAATGAGGAAATTGCATCGCATTGTCTGAGTAGGTGTCATTCTATTCTGGGGGGTGGGGTGGGGCAGGACAGCAAGGGGGAGGATTGGGAAGACAATAGCAGGCATGCTGGGGATGCGGTGGGCTCTATGGAGGAACCCCTAGTGATGGAGTTGGCCACTCCCTCTCTGCGCGCTCGCTCGCTCACTGAGGCCGGGCGACCAAAGGTCGCCCGACGCCCGGGCTTTGCCCGGGCGGCCTCAGTGAGCGAGCGAGCGCGCAGCTGCCTGCAGG
modifications: pITR-CMV-mScarlet-bGHpA

How the values were obtained:
ATOH1, POU4F3, and GFI1 = test: Relative quantification of ATOH1, POU4F3 and GFI1 RNA in HEK293FT cells transfected with individual plasmids; assay type: cell-based; conditions: FIG. 6A
Source text: FIG. 6A is a bar graph showing the relative quantification of ATOH1, POU4F3, and GFI1 (APG) RN in HEK293FT cells transfected with the individual plasmids of FIGS. 4A-C.
The data in FIGS. 6A and 6B show overexpression of ATOH1, POU4F3 and GFI-1 in HEK293FT cells that were transfected with the vectors of FIGS. 4A-4D.

[1] = test system: hair cells and supporting cells in cochlear explants; test: mScarlet positive hair cells and supporting cells in cochlear explants infected with AAVanc80, with and without TMP; assay type: cell-based, mouse; conditions: with and without 10 uM TMP, FIG. 10
Method: FIG. 9A is an image showing mScarlet positive cells in a P1-P3 mouse cochlea explant transfected with AAVanc80 vector at various MOIs. 10 μM TMP was added at a later time point.
FIG. 10 is an image showing mScarlet positive hair cells and supporting cells in a cochlear explants infected with AAVanc80 with and without 10 uM TMP that was added at a later time point.
(§1) HEK293FT cells were transfected with mScarlet and mScarlet-DD vectors (FIGS. 7A-7B). The data in FIGS. 8A and 8B show the functionality and reversibility of the destabilizing domain (DD) using fluorescence microscopy and flow cytometry, respectively.

HEK293FT cells [2] = test: Destabilizing domain (DD) functionality and reversibility, TMP dose response by fluorescence microscopy; assay type: cell-based; conditions: TMP 0.1, 1, 10, 20 and 100 μM, FIG. 8A
Method: FIG. 8A is a dose response curve showing the functionality and reversibility of the destabilizing domain (DD) using fluorescence microscopy. Serial dilutions of TMP (0.1 μM, 1 μM, 10 μM, 20 μM and 100 μM) were tested in the mScarlet and mScarlet-DD transfected HEK293FT cells.
as §1

HEK293FT cells [3] = test: mScarlet positive HEK293FT cells with AAVanc80 vector at various MOIs, with or without TMP; assay type: cell-based; conditions: 10 μM TMP added later, FIGS. 9A and 9B
Method: FIG. 9B is an image showing mScarlet positive HEK293FT cells transfected with AAVanc80 vector at various MOIs. 10 μM TMP was added at a later time point.
as §1

Molecule | ATOH1 and GFI-1 mRNA levels on overexpression of POU4F3 (ATOH1, POU4F3, and GFI1) | mScarlet expression in cochlear explants [1] | percentage of mScarlet positive cells (HEK293FT cells [2]) | mScarlet expression (HEK293FT cells [3])
POU4F3: nucleic acid vector with CMV promoter, human POU4F3 gene, 3×Flag, T2A, mScarlet and destabilizing domain | increase in ATOH1 and GFI-1 mRNA levels |  |  | 
mScarlet-DD: nucleic acid vector with ITR, CMV promoter, mScarlet, destabilizing domain (DD) and bGHpA sequences |  | only seen in the presence of TMP | increased proportionately with increasing concentration of TMP | primarily seen in mScarlet-DD transfected cells in the presence of TMP
B1 |  | seen in hair cells and supporting cells | remained constant regardless of TMP concentration | seen in all HEK293FT cells
